Holding throughout (format): cell-based
The subject of one assay is GM637. Briefly: ELISA of secreted pro-collagen I alpha 1 (Type I Collagen) from human dermal fibroblasts GM637. Here is the method: (§1) Compounds reconstitution and stock solution: Prior to treatment, DMSO was diluted in PMS until 0,1% DMSO was made. Each compound was solved in 0,1% DMSO (3: 2,5 mg/mL, 1: 2.5 mg/mL, 10: 1 mg/mL, 5: 1mg/mL, 7: 0,6 mg/mL, 16: 1 mg/mL 17: 1 mg/mL, 44: 0,6 mg/mL, 36: 1mg/mL.
(§2) Next the different stock solution with 150 µg and 250 µg of each compound per 1 ml culture solution was made by adding the 0,1% DMSO compound solution in the right amount to culture solution (DMEM with 10% FCS and 1% penicillin-streptomycin).
(§3) Three different cell lines were used for the experiments. GM637 is an immortalized cell line originated from human skin fibroblasts, bought in 2001, UKE1 and […] are cell lines originated from human dermal fibroblasts (dog ear) nurtured from patients, between 60 and 80 years old being completely anonymized at the clinic for dermatology, Rostock.
(§4) The cells lines were thawed and were cultured in Dulbeco's modified Eagel's medium (DMEM, Gibcon, USA) supplemented with 10% fetal bovine serum (FBS, Gibco, Germany) and 1% penicillin-streptomycin (PS, Gibco, USA) at 37 °C in a humidified atmosphere with 5% CO2 until a sufficient number of cells were culture in T75 culture bottles. After reaching a confluence of 80% to 90%, the cells were separated using trypsin and counted. Next 100.000 cells were planted in each well of a 6 well plate in replicates, washed and the DMEM solution with 150 µg and 250 µg/ml substance/DMEM and DMEM with no substance as control was added.
(§5) After 48h and after 72h 100 µl supernatant of each well was taken, labelled and frozen at -20° degree Celsius. Prior to perform ELISA the medium was depending on the cell line diluted 1:50 or 1:100 with PBS, otherwise the concentration of collagen fibers was too high to be measured.
(§6) The media containing the secretion of the different human dermal fibroblasts GM637, UKE1, and HRO159N were collected after 48h and 72h treatment. Secretion of pro-collagen 1 was assessed with human pro-collagen I alpha 1 DuoSet ELISA (R&D systems, USA) To prepare the Elisa plate, Human pro-Collagen I a capture antibody was diluted in ELISA plate-coating buffer at 4µg/mL working concentration. 100 µl of diluted Capture antibody was added to 96-well microplates and incubated over night at room temperature. After three times washing with Wash Buffer, microplates were blocked by adding 300 µl of Reagent Diluent for 1 hour at room temperature. To proceed the ELISA Human pro-collagen I α1 Standards were diluted in Reagent Diluent (range between 31,3 pg/mL - 2000 pg/mL) and 100 µl of standards or conditioned mediums were added to designated wells. Microplates were incubated at room temperature for 2 hours. Human Pro-collagen I α1 Detection Antibody was prepared in Reagent Diluent at […] working concentration and 100 µl of diluted Detection Antibody was applied for 2 hours at room temperature after extensive washing. Then, working solution of Streptavidin-HRP with Reagent Diluent was prepared by diluting 1:40 and added into each well. After 20 minutes at room temperature incubation, microplates were washed and applied with 100 µl of Substrate Solution for 20 minutes followed by Stop Solution after washing. Finally, signals were measured at 450 nm absorbance by PHomo Microplate Reader (Autobio, China) The amount of pro-collagen 1 was quantified by extrapolating the signal into a linear range of a pro-collagen 1 standard curve. Screening compounds were typically tested at concentration of 150 and 250 µg/mL. The dose response data for each compound and the different cell lines were obtained by nonlinear regression analysis using Prism 9 software (GraphPad, La Jolla, USA).

A further assay concerns UKE1. Briefly: ELISA of secreted pro-collagen I alpha 1 (Type I Collagen) from human dermal fibroblasts UKE1. Here is the method:
as §1, §2, §3, §4, §5, §6

For another assay, the system named is HRO159N. Briefly: ELISA of secreted pro-collagen I alpha 1 (Type I Collagen) from human dermal fibroblasts HRO159N. The note with it: 250 µg. Here is the method:
as §1, §2, §3, §4, §5, §6

The next assay concerns MRCVI. The experiment in a line: ELISA of secreted pro-collagen I alpha 1 (Type I Collagen) from human lung fibroblast MRCVI. As for the experimental part:
as §1, §2
As cell line MRCV1 was used, which is an immortalized cell line originated from human lung fibroblast, bought in 2001.
as §4, with “cell line was” for “cells lines were”, “and” for “and were”
as §5
The medium containing the secretion of the human lung fibroblast MRCVI was collected after 48h and 72h treatment. Secretion of pro-collagen 1 was assessed with human pro-collagen I alpha 1 DuoSet ELISA (R&D systems, USA) To prepare the Elisa plate, Human pro-Collagen I a capture antibody was diluted in ELISA plate-coating buffer at 4µg/mL working concentration. 100 µl of diluted Capture antibody was added to 96-well microplates and incubated over night at room temperature. After three times washing with Wash Buffer, microplates were blocked by adding 300 µl of Reagent Diluent for 1 hour at room temperature. To proceed the ELISA Human pro-collagen I α1 Standards were diluted in Reagent Diluent (range between 31,3 pg/mL - 2000 pg/mL) and 100 µl of standards or conditioned mediums were added to designated wells. Microplates were incubated at room temperature for 2 hours. Human Pro-collagen I α1 Detection Antibody was prepared in Reagent Diluent at […] working concentration and 100 µl of diluted Detection Antibody was applied for 2 hours at room temperature after extensive washing. Then, working solution of Streptavidin-HRP with Reagent Diluent was prepared by diluting 1:40 and added into each well. After 20 minutes at room temperature incubation, microplates were washed and applied with 100 µl of Substrate Solution for 20 minutes followed by Stop Solution after washing. Finally, signals were measured at 450 nm absorbance by PHomo Microplate Reader (Autobio, China) The amount of pro-collagen 1 was quantified by extrapolating the signal into a linear range of a pro-collagen 1 standard curve. Screening compounds were typically tested at concentration of 150 and 250 µg/mL. The dose response data for each compound and the different cell lines were obtained by nonlinear regression analysis using Prism 9 software (GraphPad, La Jolla, USA).

As to `CC(C)Oc1nn2nnnc2c2c(Cl)cccc12` [Compound 44, 10-chloro-6-isopropoxytetrazolo[5,1-a]phthalazine], the “collagen reduction percentage in comparison to the standard (100 %)” value (“collagen reduction percentage … (100 %)” for short) was determined as 122% with GM637 (48h, 150 µg); 89% in the assay with GM637 (48h, 250 µg); 61% with GM637 (72 h, 150 µg); 65% in the assay with GM637 (72 h, 250 µg); 122% in the assay on UKE1 (48h, 150 µg); 89% in the assay on UKE1 (48h, 250 µg). For the same compound, the “collagen reduction percentage … (100 %)” value amounted to 61% with UKE1 (72 h, 150 µg); 65% in the assay on UKE1 (72 h, 250 µg); 72% in the assay on HRO159N (48h); 79% in the assay with HRO159N (72 h).

Regarding `Cc1nnc2c3cscc3cnn12` [Compound 16, 3-Methylthieno[3,4-d][1,2,4]triazolo[4,3-b]pyridazine], the “collagen reduction percentage … (100 %)” value in the assay on GM637 (48h, 150 µg) is recorded as 79%; in the assay with GM637 (48h, 250 µg), 62%; with GM637 (72 h, 150 µg), 86%; in the assay with GM637 (72 h, 250 µg) it was 55%; with UKE1 (48h, 150 µg), 117%; in the assay on UKE1 (48h, 250 µg), 99%. For the same compound, the “collagen reduction percentage … (100 %)” value was found to be 82% in the assay on UKE1 (72 h, 150 µg); 35% with UKE1 (72 h, 250 µg); 79% with HRO159N (48h); 48% with HRO159N (72 h); 72% with MRCVI (48h, 150 µg); 43% in the assay with MRCVI (48h, 250 µg). Also, the “collagen reduction percentage … (100 %)” value with MRCVI (72 h, 150 µg) was determined as 82%; in the assay on MRCVI (72 h, 250 µg), 35%.

Take `c1nn2nnnc2c2cscc12` [Compound 17, Tetrazolo[1,5-b]thieno[3,4-d]pyridazine]: the “collagen reduction percentage … (100 %)” value with GM637 (48h, 150 µg) was found to be 90%; with GM637 (48h, 250 µg), 62%; in the assay with GM637 (72 h, 150 µg) it was 103%; in the assay on GM637 (72 h, 250 µg), 55%; in the assay on UKE1 (48h, 150 µg), 102%; in the assay with UKE1 (48h, 250 µg), 86%. Moreover, the “collagen reduction percentage … (100 %)” value with UKE1 (72 h, 150 µg) is 76%; in the assay with UKE1 (72 h, 250 µg), 59%; in the assay with HRO159N (48h), 34%; in the assay on HRO159N (72 h) it was 4%; in the assay on MRCVI (48h, 150 µg), 33%; in the assay on MRCVI (48h, 250 µg), 16%. In addition, the “collagen reduction percentage … (100 %)” value in the assay on MRCVI (72 h, 150 µg) is on record as 35%; in the assay on MRCVI (72 h, 250 µg), 11%.

Regarding `c1ccc2c(c1)cnn1nnnc21` [Compound 1, Tetrazolor5,1-alphthalazine], the “collagen reduction percentage … (100 %)” value is reported as 127% in the assay on GM637 (48h, 150 µg); 77% in the assay on GM637 (48h, 250 µg); 95% in the assay on GM637 (72 h, 150 µg); 92% in the assay on GM637 (72 h, 250 µg); 70% in the assay on UKE1 (48h, 150 µg); 85% in the assay with UKE1 (48h, 250 µg). The “collagen reduction percentage … (100 %)” value in the assay on UKE1 (72 h, 150 µg) came to 74%; in the assay on UKE1 (72 h, 250 µg) it was 68%; in the assay on HRO159N (48h) it was 57%; in the assay with HRO159N (72 h), 72%; in the assay on MRCVI (48h, 150 µg) it was 87%; in the assay with MRCVI (48h, 250 µg), 78%. Besides, the “collagen reduction percentage … (100 %)” value was 74% with MRCVI (72 h, 150 µg) and 61% in the assay with MRCVI (72 h, 250 µg).

In the case of `FC(F)(F)c1nnc2c3ccccc3cnn12` [Compound 5, 3-Trifluoromethyl-1,2,4-triazolo[3,4-a]phthalazine], the “collagen reduction percentage … (100 %)” value is on record as 114% in the assay with GM637 (48h, 150 µg); 89% in the assay on GM637 (48h, 250 µg); 70% in the assay on GM637 (72 h, 150 µg); 105% with GM637 (72 h, 250 µg); 107% with UKE1 (48h, 150 µg); 99% with UKE1 (48h, 250 µg). The “collagen reduction percentage … (100 %)” value in the assay on UKE1 (72 h, 150 µg) was 94%; in the assay with UKE1 (72 h, 250 µg) it was 62%; in the assay with MRCVI (48h, 150 µg), 97%; in the assay on MRCVI (48h, 250 µg), 107%; with MRCVI (72 h, 150 µg) it was 56%; in the assay with MRCVI (72 h, 250 µg) it was 108%.

With `c1ccc2c(c1)cnn1cnnc21` [Compound 10, 1,2,4-Triazolo[3,4-a]phthalazine], the “collagen reduction percentage … (100 %)” value was determined as 67% with MRCVI (48h, 150 µg); 52% with MRCVI (48h, 250 µg); 48% in the assay on MRCVI (72 h, 150 µg); 25% in the assay with MRCVI (72 h, 250 µg).

For the compound `Cc1nnc2c3ccc(C(F)(F)F)cc3cnn12` [Compound 36, 3-Methyl-8-(trifluoromethyl)-[1,2,4]triazolo[3,4-a]phthalazine], the “collagen reduction percentage … (100 %)” value with MRCVI (48h, 150 µg) came out at 64%; in the assay on MRCVI (48h, 250 µg) it was 68%; in the assay on MRCVI (72 h, 150 µg), 36%; in the assay on MRCVI (72 h, 250 µg), 22%.
